“Also recorded” adds a separate entry of the source.
Experiments:
PTSD = settings: 20 mg/day and 40 mg/day, cited from earlier work
[1] = test system: severely disruptive symptoms related to autistic disorder; settings: pentoxifylline titrated to 600 mg/day with risperidone up to 3 mg/day, 10 weeks, versus placebo+risperidone; cited from earlier work
[2] = test system: behavioral symptoms of children with ASD; settings: 30 or 60 mg per day p.o. for 3-4 months, 25 children; cited from earlier work
[3] = test system: IL-12 production from dendritic cells; assay: Induced IL-12 production by dendritic cells, ELISA; type: cell-based, human; settings: CD1c dendritic cells; 1 ug/ml LPS and 10 μM amyloid beta peptide Aβ (1-42) for 24 h; supernatant ELISA
Procedure: Monocytes from adherent PBMC were isolated as described in Example 1. Dendritic cells were generated by 7 day culture in IL-4 (10 ng/ml) and GM-CSF (20 ng/ml). Media was changed every two days. On day 7, purification of CD1c dendritic cells was performed and cells were cultured in control media, 1 ug/ml LPS and 10 μM of amyloid beta peptide Aβ (1-42) for 24 h. Supernatant was collected and assessed for IL-12 production by ELISA.

[4] = test system: TNF-alpha production from monocytes; assay: Induced TNF-alpha production by monocytes (adherent PBMC), ELISA; type: cell-based, human; settings: 30% xenon by volume for 1 or 2 hours; 1 ug/ml LPS and 10 μM amyloid beta peptide Aβ (1-42) for 24 h; supernatant ELISA
Procedure: 10 ml of heparinized blood was extracted from healthy volunteers and peripheral blood mononuclear cells were isolated by centrifugation over a ficoll gradient. Cells were subsequently washed in 2× volume phosphate buffered saline, and resuspended in RPMI media supplemented with 10% fetal calf serum. Cells were incubated at a concentration of 10 million cells per ml in 6-well plates in a volume of 2 ml per well. Cells were cultured for 24 hours at 37 Celsius in a fully humidified atmosphere with 5% CO2, subsequent to which non-adherent cells were removed by washing with PBS. Adherent cells were subsequently divided into […], one plate incubated at normoxic tissue culture, the second plate cultured for 1 hour in 30% xenon by volume, and the third tissue cultured for 2 hours in 30% volume. Cells were treated with control media, 1 ug/ml LPS and 10 μM of amyloid beta peptide Aβ (1-42) for 24 h. Supernatant was collected and assessed for TNF-alpha production by ELISA.

Fc1ccc([C@@H]2CCNC[C@H]2COc2ccc3c(c2)OCO3)cc1 [paroxetine]
improvement on primary outcome measures compared to placebo (PTSD; intent-to-treat analysis): significantly greater improvement
PTSD symptom clusters (reexperiencing, avoidance/numbing, hyperarousal), social and occupational impairment, comorbid depression (PTSD; versus placebo): statistically significant improvement compared to placebo
tolerability (PTSD): well tolerated

CC(=O)CCCCn1c(=O)c2c(ncn2C)n(C)c1=O [pentoxifylline]
ABC-C subscale scores (Irritability, Lethargy/Social Withdrawal, Stereotypic Behavior, Hyperactivity/Noncompliance, Inappropriate Speech) [1]: greater reduction in ABC-C subscale scores

CCc1ccc(CCOc2ccc(CC3SC(=O)NC3=O)cc2)nc1 (stereo not shown) [pioglitazone]
adverse events [2]: without adverse events

[Xe] [xenon gas, xenon]
induced IL-12 production (FIG. 2) [3]: suppression of induced IL-12 production was observed; also recorded: suppression of inducible IL-12 production
induced TNF-alpha production (FIG. 1) [4]: suppression of induced TNF-alpha production was observed; also recorded: suppression of inducible TNF-alpha production

— US10792305B2, “Therapeutic immune modulation using noble gas compositions” (NOBILIS THERAPEUTICS, INC., priority 2015, dated 2020)
